“Also recorded” adds a separate entry of the source. Where a SMILES comes first, the peptide text is derived from it. Bridges are numbered along the chain shown (N, C = ends). Where no end group is shown, it is not given here. [ ]: non-standard residue; d: D form. Cha = N[C@@H](CC1CCCCC1)C(=O)O
What was measured:
[1] = tested on: cultured vascular smooth muscle cells (VSMC) derived from the aortas of rats; test: cGMP producing activity in cultured VSMC (cGMP radioimmunoassay); assay type: cell-based, rat; conditions: for cGMP producing activity (in words): comparison with CNP-22 or α-hANP; for cGMP producing activity (% increase for 1 μm): specific activity compared to 1 μm α-hANP (2000 fmol/400000 cells) = 100, peptide at 1 μm
Method: 1-1: Measurement of CGMP Producing Activity
The above-mentioned activity of compounds synthesized according to the present invention was measured by the methods of Hirata et al. (Biochem. Biophys. Res. Commun., 128, 538, 1985) and Scarborough et al. (J. Biol. Chem., 261, 12960, 1986). The cells used were cultured vascular smooth muscle cells (hereunder abbreviated as VSMC) derived from the aortas of rats. From 10^-9 to 10^-6 M of α-hANP or a 20 peptide of interest was incubated together with VSMC and the amount cGMP produced was measured by cGMP radioimmunoassay. Percent maximum reactivity for each peptide, with the value of maximum reactivity for α-hANP being taken as 100%, was used as an indicator of activity.

[2] = tested on: cultured vascular smooth muscle cells (VSMC) derived from the aortas of rats; test: Cell growth suppressing activity: [3H] thymidine uptake (DNA synthesis inhibition) in VSMC; assay type: cell-based, rat; conditions: 0.1 μm of each peptide; BSMC line stimulated with PDGF (20 ng/ml)
Method: 1-2: Measurement of Cell Growth Suppressing Activity
Cell growth suppressing activity was evaluated in accordance with the method of Kariya et al. (Atherosclerosis, 80, 143-147, 1990) by measuring the uptake of [^3 H] thymidine into cells as an indicator of percent DNA synthesis inhibition using the above-identified VSMC. Cells tuned to a stationary phase were incubated at 37° C. for 14 h with each sample added in the presence of 1% serum or 20 ng/ml of PDGF (platelet derived growth factor). Then, following the addition of 37 kBq/ml of [^3 H] thymidine, the incubation was continued for another 4 h and the radioactivity of [^3 H] thymidine incorporated into the cells was measured. The values of measurement were such that the uptake of [^3 H] thymidine for the case where only 1% serum or PDGF was added in the absence of peptide was taken as 100%, with the percent suppression due to the peptide addition being accordingly calculated.

Row | Compound | cGMP producing activity (in words) ([1]; rat VSMC) | cGMP producing activity (% increase for 1 μm) [1] | % Inhibition of 3H-thymidine uptake [2] | cGMP producing activity relative to α-hANP ([1]; rat VSMC, times as high activity as α-hANP)
1 | CC[C@H](C)[C@@H]1NC(=O)[C@H](CCCNC(=N)N)NC(=O)[C@H](CC(=O)O)NC(=O)[C@H](CCSC)NC(=O)[C@H](CCCNC(=N)N)NC(=O)CNC(=O)CNC(=O)[C@H](Cc2ccccc2)NC(=O)[C@@H](NC(=O)[C@H](CO)NC(=O)[C@H](CO)NC(=O)[C@H](CCCNC(=N)N)NC(=O)[C@H](CCCNC(=N)N)NC(=O)[C@H](CC(C)C)NC(=O)[C@@H](N)CO)CSSC[C@@H](C(=O)O)NC(=O)CNC(=O)[C@H](CC(C)C)NC(=O)CNC(=O)[C@H](CO)NC(=O)[C@H](CCC(N)=O)NC(=O)[C@H](C)NC(=O)CNC1=O [Compound 1] | only a weak cGMP producing activity at a level comparable to α-hANP | 62% | – | –
2 | CC[C@H](C)[C@@H]1NC(=O)[C@H](CCCNC(=N)N)NC(=O)[C@H](CC(=O)O)NC(=O)[C@H](CCSC)NC(=O)[C@H](CCCNC(=N)N)NC(=O)CNC(=O)CNC(=O)[C@H](Cc2ccccc2)NC(=O)[C@@H](NC(=O)CNC(=O)[C@H](CCCCN)NC(=O)[C@H](CO)NC(=O)[C@H](CC(C)C)NC(=O)CN)CSSC[C@@H](C(=O)N[C@@H](CC(N)=O)C(=O)N[C@@H](CO)C(=O)N[C@@H](Cc2ccccc2)C(=O)N[C@@H](CCCNC(=N)N)C(=O)N[C@@H](Cc2ccc(O)cc2)C(=O)O)NC(=O)[C@H](CCC(=O)O)NC(=O)[C@H](CC(C)C)NC(=O)[C@H](CCC(=O)O)NC(=O)[C@H](CO)NC(=O)[C@H](CCC(N)=O)NC(=O)[C@H](C)NC(=O)CNC1=O [Compound 2, H-Gly-Leu-Ser-Lys-Gly-Cys-Phe-Gly-Gly-Arg-Met-Asp-Arg-Ile-Gly-Ala-Gln-Ser- Glu-Leu-Glu-Cys-Asn-Ser-Phe-Arg-Tyr-OH] (H-GLSKGCFGGRMDRIGAQSELECNSFRY-OH; disulfide 6-22) | only a weak cGMP producing activity at a level comparable to α-hANP | 147% | 38% | –
3 | CC[C@H](C)[C@@H]1NC(=O)[C@H](CCCNC(=N)N)NC(=O)[C@H](CC(=O)O)NC(=O)[C@H](CC(C)C)NC(=O)[C@H](CCCCN)NC(=O)[C@H](CC(C)C)NC(=O)CNC(=O)[C@H](Cc2ccccc2)NC(=O)[C@@H](NC(=O)CNC(=O)[C@H](CCCCN)NC(=O)[C@H](CO)NC(=O)[C@H](CC(C)C)NC(=O)CN)CSSC[C@@H](C(=O)N[C@@H](CC(N)=O)C(=O)N[C@@H](CO)C(=O)N[C@@H](Cc2ccccc2)C(=O)N[C@@H](CCCNC(=N)N)C(=O)N[C@@H](Cc2ccc(O)cc2)C(=O)O)NC(=O)CNC(=O)[C@H](CC(C)C)NC(=O)CNC(=O)[C@H](CO)NC(=O)[C@H](CCSC)NC(=O)[C@H](CO)NC(=O)CNC1=O [Compound 3] | strong cGMP producing activity at a comparable level to that exhibited by CNP-22 | 667% | – | –
4 | CC[C@H](C)[C@@H]1NC(=O)[C@H](CCCNC(=N)N)NC(=O)[C@H](CC(=O)O)NC(=O)[C@H](CC(C)C)NC(=O)[C@H](CCCCN)NC(=O)[C@H](CC(C)C)NC(=O)CNC(=O)[C@H](Cc2ccccc2)NC(=O)[C@@H](NC(=O)[C@H](CO)NC(=O)[C@H](CO)NC(=O)[C@H](CCCNC(=N)N)NC(=O)[C@H](CCCNC(=N)N)NC(=O)[C@H](CC(C)C)NC(=O)[C@@H](N)CO)CSSC[C@@H](C(=O)O)NC(=O)CNC(=O)[C@H](CC(C)C)NC(=O)CNC(=O)[C@H](CO)NC(=O)[C@H](CCSC)NC(=O)[C@H](CO)NC(=O)CNC1=O [Compound 4] (H-SLRRSSCFGLKLDRIGSMSGLGC-OH; disulfide 7-23) | strong cGMP producing activity at a comparable level to that exhibited by CNP-22 | 663% | – | –
5 | CC[C@H](C)[C@@H]1NC(=O)[C@H](CCCNC(=N)N)NC(=O)[C@H](CC(=O)O)NC(=O)[C@H](CC(C)C)NC(=O)[C@H](CCCCN)NC(=O)[C@H](CC(C)C)NC(=O)CNC(=O)[C@H](Cc2ccccc2)NC(=O)[C@@H](N)CSSC[C@@H](C(=O)O)NC(=O)CNC(=O)[C@H](CC(C)C)NC(=O)CNC(=O)[C@H](CO)NC(=O)[C@H](CCSC)NC(=O)[C@H](CO)NC(=O)CNC1=O [Compound 5, CFGLKLDRIGSMSGLGC] (H-CFGLKLDRIGSMSGLGC-OH; disulfide 1-17) | strong cGMP producing activity at a comparable level to that exhibited by CNP-22 | 616% | 65% | –
6 | CC[C@H](C)[C@@H]1NC(=O)[C@H](CCCNC(=N)N)NC(=O)[C@H](CC(=O)O)NC(=O)[C@H](CCSC)NC(=O)[C@H](CCCCN)NC(=O)CNC(=O)CNC(=O)[C@H](Cc2ccccc2)NC(=O)[C@@H](NC(=O)CNC(=O)[C@H](CCCCN)NC(=O)[C@H](CO)NC(=O)[C@H](CC(C)C)NC(=O)CN)CSSC[C@@H](C(=O)O)NC(=O)CNC(=O)[C@H](CC(C)C)NC(=O)CNC(=O)[C@H](CO)NC(=O)[C@H](CCSC)NC(=O)[C@H](CO)NC(=O)CNC1=O [Compound 11] (H-GLSKGCFGGKMDRIGSMSGLGC-OH; disulfide 6-22) | particularly marked; also recorded: lower in cGMP producing activity than the other one- and two-residue substituted derivatives | 71% | – | –
7 | CC[C@H](C)[C@@H]1NC(=O)[C@H](CCCNC(=N)N)NC(=O)[C@H](CC(=O)O)NC(=O)[C@H](CCSC)NC(=O)[C@H](CCCNC(=N)N)NC(=O)[C@H](CC(C)C)NC(=O)CNC(=O)[C@H](Cc2ccccc2)NC(=O)[C@@H](NC(=O)CNC(=O)[C@H](CCCCN)NC(=O)[C@H](CO)NC(=O)[C@H](CC(C)C)NC(=O)CN)CSSC[C@@H](C(=O)O)NC(=O)CNC(=O)[C@H](CC(C)C)NC(=O)CNC(=O)[C@H](CO)NC(=O)[C@H](CCSC)NC(=O)[C@H](CO)NC(=O)CNC1=O [Compound 12] (H-GLSKGCFGLRMDRIGSMSGLGC-OH; disulfide 6-22) | – | 273% | – | –
8 | CC[C@H](C)[C@@H]1NC(=O)[C@H](CCCNC(=N)N)NC(=O)[C@H](CC(=O)O)NC(=O)[C@H](CC(C)C)NC(=O)[C@H](CCCNC(=N)N)NC(=O)CNC(=O)CNC(=O)[C@H](Cc2ccccc2)NC(=O)[C@@H](NC(=O)CNC(=O)[C@H](CCCCN)NC(=O)[C@H](CO)NC(=O)[C@H](CC(C)C)NC(=O)CN)CSSC[C@@H](C(=O)O)NC(=O)CNC(=O)[C@H](CC(C)C)NC(=O)CNC(=O)[C@H](CO)NC(=O)[C@H](CCSC)NC(=O)[C@H](CO)NC(=O)CNC1=O [Compound 13] (H-GLSKGCFGGRLDRIGSMSGLGC-OH; disulfide 6-22) | – | 58% | – | –
9 | CC[C@H](C)[C@H](NC(=O)[C@H](CCCNC(=N)N)NC(=O)[C@H](CC(=O)O)NC(=O)[C@H](CC(C)C)NC(=O)[C@H](CCCCN)NC(=O)[C@H](CC(C)C)NC(=O)CNC(=O)[C@H](Cc1ccccc1)NC(=O)[C@H](CSC)NC(=O)CNC(=O)[C@H](CCCCN)NC(=O)[C@H](CO)NC(=O)[C@H](CC(C)C)NC(=O)CN)C(=O)NCC(=O)N[C@@H](CO)C(=O)N[C@@H](CCSC)C(=O)N[C@@H](CO)C(=O)NCC(=O)N[C@@H](CC(C)C)C(=O)NCC(=O)N[C@@H](CSC)C(=O)O [Compound 19, H-Gly-Leu-Ser-Lys-Gly-Cys(Me)-Phe-Gly-Leu-Lys-Leu-Asp-Arg-Ile-Gly-Ser-Met- Ser-Gly-Leu-Gly-Cys(Me)-OH] | hardly reduced the cGMP producing activity | 38% | – | –
10 | CC[C@H](C)[C@@H]1NC(=O)[C@H](CCCNC(=N)N)NC(=O)[C@H](CC(=O)O)NC(=O)[C@H](CC(C)C)NC(=O)[C@H](CCCCN)NC(=O)[C@H](CC(C)C)NC(=O)CNC(=O)[C@H](CC2CCCCC2)NC(=O)[C@@H](N)CSSC[C@@H](C(=O)N[C@@H](CC(N)=O)C(=O)N[C@@H](CO)C(=O)N[C@@H](Cc2ccccc2)C(=O)N[C@@H](CCCNC(=N)N)C(=O)N[C@@H](Cc2ccc(O)cc2)C(=O)O)NC(=O)CNC(=O)[C@H](CC(C)C)NC(=O)CNC(=O)[C@H](CO)NC(=O)[C@H](CCC(N)=O)NC(=O)[C@H](C)NC(=O)CNC1=O [Compound 27] (H-C[Cha]GLKLDRIGAQSGLGCNSFRY-OH; disulfide 1-17) | – | 523% | – | 4-6 times
11 | GLSKGCpC1FGLKLDRIGSMSGLGC [Compound 16] | stronger activity than CNP-22 | 688% | – | –
12 | pCNP-53: porcine CNP-53, CNP-22 with 31 amino acid residues attached to the N-terminus (DLRVDTKSRAAWARLLHEHPNARKYKGGNKKGLSKGCFGLKLDRIGSMSGLGC; disulfide 37-53 (inferred); ends not checked; UniProt P18104 74-126, looked up) [reference compound] | – | 524% | – | –

Source: patent publication US5434133A, “CNP analog peptides and their use” (Suntory Limited, priority 1991, dated 1995)
